According to US10730889B2, “Amido spirocyclic amide and sulfonamide derivatives” (Forma TM, LLC, priority 2012, dated 2020):

test system: A2780 cells; experiment: In-vitro cell proliferation assay (SRB, 72 hours); assay type: cell-based; conditions: A2780 cells, 72 hours, SRB; read-out: Cell Proliferation (IC50)

| IC50 [nM] | SMILES |
| --- | --- |
| 335 | Cc1nn(C)c(C)c1C(=O)N1CCC2(CC1)CC2CNC(=O)c1cc2ccncc2o1 (single isomer, unassigned) [Example 300, N-[[6-(1,3,5-trimethylpyrazole-4-carbonyl)-6-azaspiro[2.5]octan-2-yl]methyl]furo[2,3-c]pyridine-2-carboxamide] |
| 17.1 | Cc1nc(C)c(C(=O)N2CCC3(CC2)CC3CNC(=O)c2cc3ccncc3o2)o1 (centres unmarked) [Example 385, N-[[6-(2,4-dimethyloxazole-5-carbonyl)-6-azaspiro[2.5]octan-2-yl]methyl]furo[2,3-c]pyridine-2-carboxamide] |

same assay, conditions: Homo sapiens, A2780, 72 h, A2780 cells, 72 hours, SRB; read-out: Cell Proliferation (IC50)

| SMILES | IC50 [nM] |
| --- | --- |
| O=C(NCC1CC12CCN(C(=O)C1CCCO1)CC2)c1cc2ccncc2o1 (centres unmarked) [Example 61, N-[[6-(tetrahydrofuran-2-carbonyl)-6-azaspiro[2.5]octan-2-yl]methyl]furo[2,3-c]pyridine-2-carboxamide] | 2000 |
| O=C(NCC1CC12CCN(C(=O)NCC1CCCCC1)CC2)c1cc2ccncc2o1 (centres unmarked) [Example 184, N-[[6-(cyclohexylmethylcarbamoyl)-6-azaspiro[2.5]octan-2-yl]methyl]furo[2,3-c]pyridine-2-carboxamide] | 2000 |
| NC(=O)N1CCCC1C(=O)N1CCC2(CC1)CC2CNC(=O)c1cc2ccncc2o1 (centres unmarked) [Example 64, N-[[6-(1-carbamoylpyrrolidine-2-carbonyl)-6-azaspiro[2.5]octan-2-yl]methyl]furo[2,3-c]pyridine-2-carboxamide] | 2000 |
| O=C(NCC1CC12CCN(C(=O)c1ccncn1)CC2)c1cc2ccncc2o1 (centres unmarked) [Example 102, N-[[6-(pyrimidine-4-carbonyl)-6-azaspiro[2.5]octan-2-yl]methyl]furo[2,3-c]pyridine-2-carboxamide] | 2000 |
| CC(=O)N1CCN(CC(=O)N2CCC3(CC2)CC3CNC(=O)c2cc3ccncc3o2)CC1 (centres unmarked) [Example 95, N-[[6-[2-(4-acetylpiperazin-1-yl)acetyl]-6-azaspiro[2.5]octan-2-yl]methyl]furo[2,3-c]pyridine-2-carboxamide] | 2000 |
| CN1CCN(Cc2ccccc2C(=O)N2CCC3(CC2)CC3CNC(=O)c2cc3ccncc3o2)CC1 (centres unmarked) [Example 87, N-[[6-[2-[(4-methylpiperazin-1-yl)methyl]benzoyl]-6-azaspiro[2.5]octan-2-yl]methyl]furo[2,3-c]pyridine-2-carboxamide] | 2000 |
| O=C(NCC1CC12CCN(C(=O)c1nc[nH]n1)CC2)c1cc2ccncc2o1 (centres unmarked) [Example 100, N-[[6-(1H-1,2,4-triazole-3-carbonyl)-6-azaspiro[2.5]octan-2-yl]methyl]furo[2,3-c]pyridine-2-carboxamide] | 2000 |
| O=C(NCC1CC12CCN(C(=O)c1ccc(OC(F)(F)F)cc1)CC2)c1cc2ccncc2o1 (centres unmarked) [Example 247, N-[[6-[4-(trifluoromethoxy)benzoyl]-6-azaspiro[2.5]octan-2-yl]methyl]furo[2,3-c]pyridine-2-carboxamide] | 2000 |
| N#Cc1ccc(NC(=O)N2CCC3(CC2)CC3CNC(=O)c2cc3ccncc3o2)cc1 (centres unmarked) [Example 157, N-[[6-[(4-cyanophenyl)carbamoyl]-6-azaspiro[2.5]octan-2-yl)methyl]furo[2,3-c]pyridine-2-carboxamide] | 2000 |
| O=C(NCC1CC12CCN(C(=O)Cc1cnccn1)CC2)c1cc2ccncc2o1 (centres unmarked) [Example 50, N-[[6-(2-pyrazin-2-ylacetyl)-6-azasptro[2.5]octan-2-yl]methyl]furo[2,3-c]pyridine-2-carboxamide] | 2000 |
| N#Cc1cccc(CC(=O)N2CCC3(CC2)CC3CNC(=O)c2cc3cnccc3[nH]2)c1 (centres unmarked) [Example 206, N-[[6-[2-(3-cyanophenyl)acetyl]-6-azaspiro[2.5]octan-2-yl]methyl]-1H-pyrrolo[3,2-c]pyridine-2-carboxamide] | 2000 |
| NS(=O)(=O)c1ccc(C(=O)N2CCC3(CC2)CC3CNC(=O)c2cc3ccncc3o2)cc1 (centres unmarked) [Example 259, N-[[6-(4-sulfamoylbenzoyl)-6-azaspiro[2.5]octan-2-yl]methyl]furo[2,3-c]pyridine-2-carboxamide] | 1200 |
| O=C(NCC1CC12CCN(C(=O)c1cc[nH]n1)CC2)c1cc2ccncc2o1 (centres unmarked) [Example 104, N-[[6-(1H-pyrazole-3-carbonyl)-6-azaspiro[2.5]octan-2-yl]methyl]furo[2,3-c]pyridine-2-carboxamide] | 2000 |
| O=C(NCC1CC12CCN(C(=O)c1ccncc1)CC2)c1cc2ccncc2o1 (centres unmarked) [Example 97, N-[[6-(pyridine-4-carbonyl)-6-azaspiro[2.5]octan-2-yl]methyl]furo[2,3-c]pyridine-2-carboxamide] | 2000 |
| O=C(NCC1CC12CCN(C(=O)NCc1ccc(F)cc1)CC2)c1cc2ccncc2o1 (centres unmarked) [Example 163, N-[[6-[(4-fluorophenyl)methylcarbamoyl]-6-azaspiro[2.5]octan-2-yl]methyl]furo[2,3-c]pyridine-2-carboxamide] | 2000 |

More lines, now with the values ahead:

| IC50 [nM] | SMILES |
| --- | --- |
| 711 | Cc1nnnn1Cc1ccc(C(=O)N2CCC3(CC2)CC3CNC(=O)c2cc3ccncc3o2)cc1 (centres unmarked) [Example 96, N-[[6-[4-[(5-methyltetrazol-1-yl]methyl]benzoyl]-6-azaspiro[2.5]octan-2-yl]methyl]furo[2,3-c]pyridine-2-carboxamide] |
| 449 | Cc1cc(C(=O)N2CCC3(CC2)CC3CNC(=O)c2cc3ccncc3o2)n[nH]1 (centres unmarked) [Example 108, N-[[6-(5-methyl-1H-pyrazole-3-carbonyl)-6-azaspiro[2.5]octan-2-yl]methyl]furo[2,3-c]pyridine-2-carboxamide] |
| 34.1 | O=C(Cc1ccccn1)N1CCC2(CC1)CC2CNC(=O)N1Cc2ccncc2C1 (centres unmarked) [Example 176, N-[[6-[2-(2-pyridyl)acetyl]-6-azaspiro[2.5]octan-2-yl]methyl] 1,3-dihydropyrrolo[3,4-c]pyridine-2-carboxamide] |
| 717 | Cc1ccc(C(=O)N2CCC3(CC2)CC3CNC(=O)c2cc3ccncc3o2)nc1 (centres unmarked) [Example 341, N-[[6-(5-methylpyridine-2-carbonyl)-6-azaspiro[2.5]octan-2-yl)methyl]furo[2,3-c]pyridine-2-carboxamide] |
| 18.5 | Cc1cc(C)c(C(=O)N2CCC3(CC2)CC3CNC(=O)c2cc3ccncc3o2)cn1 (centres unmarked) [Example 281, N-[[6-(4,6-dimethylpyridine-3-carbonyl)-6-azaspiro[2.5]octan-2-yl)methyl]furo[2,3-c]pyridine-2-carboxamide] |
| 185 | O=C(NCC1CC12CCN(C(=O)CC1CCOCC1)CC2)c1cc2ccncc2o1 (centres unmarked) [Example 36, N-[[6-(2-tetrahydropyran-4-ylacetyl)-6-azaspiro[2.5]octan-2-yl]methyl]furo[2,3-c]pyridine-2-carboxamide] |
| 169 | CCc1noc(C)c1C(=O)N1CCC2(CC1)CC2CNC(=O)c1cc2ccncc2o1 (centres unmarked) [Example 136, N-[[6-(3-ethyl-5-methyl-isoxazole-4-carbonyl)-6-azaspiro[2.5]octan-2-yl)methyl]furo[2,3-c]pyridine-2-carboxamide] |
| 710 | CC(=O)N1CCC(C(=O)N2CCC3(CC2)CC3CNC(=O)c2cc3ccncc3o2)CC1 (centres unmarked) [Example 82, N-[[6-(1-acetylpiperidine-4-carbonyl)-6-azaspiro[2.5]octan-2-yl]methyl]furo[2,3-c]pyridine-2-carboxamide] |
| 674 | O=C(NCC1CC12CCN(C(=O)CC1CCCCO1)CC2)c1cc2ccncc2o1 (centres unmarked) [Example 52, N-[[6-(2-tetrahydropyran-2-ylacetyl)-6-azaspiro[2.5]octan-2-yl]methyl]furo[2,3-c]pyridine-2-carboxamide] |
| 274 | Cc1ccc(NC(=O)N2CCC3(CC2)CC3CNC(=O)c2cc3ccncc3o2)cc1 (centres unmarked) [Example 159, N-[[6-(p-tolylcarbamoyl)-6-azaspiro[2.5]octan-2-yl]methyl]furo[2,3-c]pyridine-2-carboxamide] |
| 79.5 | O=C(NCC1CC12CCN(C(=O)c1ccc3cnccc3n1)CC2)c1cc2ccncc2o1 (centres unmarked) [Example 262, N-[[6-(1,6-naphthyridine-2-carbonyl)-6-azaspiro[2.5]octan-2-yl]methyl]furo[2,3-c]pyridine-2-carboxamide] |
| 9.19 | CC(=O)NCC(C)(C)OC(=O)N1CCC2(CC1)CC2CNC(=O)N1Cc2ccncc2C1 (centres unmarked) [Example 358, (2-acetamido-1,1-dimethyl-ethyl)2-[(1,3-dihydropyrrolo[3,4-c]pyridine-2-carbonylamino)methyl]-6-azaspiro[2.5]octane-6-carboxylate] |
| 207 | CC(C)CC(=O)N1CCC2(CC1)CC2CNC(=O)c1cc2ccncc2o1 (centres unmarked) [Example 273, N-[[6-(3-methylbutanoyl)-6-azaspiro[2.5]octan-2-yl]methyl]furo[2,3-c]pyridine-2-carboxamide] |
| 299 | Cn1ccc(C(=O)N2CCC3(CC2)CC3CNC(=O)c2cc3ccncc3o2)n1 (centres unmarked) [Example 109, N-[[6-(1-methylpyrazole-3-carbonyl)-6-azaspiro[2.5]octan-2-yl]methyl]furo[2,3-c]pyridine-2-carboxamide] |
| 83 | O=C(NCC1CC12CCN(C(=O)c1cc(C3CC3)n[nH]1)CC2)c1cc2ccncc2o1 (centres unmarked) [Example 123, N-[[6-(3-cyclopropyl-1H-pyrazole-5-carbonyl)-6-azaspiro[2.5]octan-2-yl]methyl]furo[2,3-c]pyridine-2-carboxamide] |
| 77.6 | O=C(NCC1CC12CCN(C(=O)c1cc(C3CC3)on1)CC2)c1cc2ccncc2o1 (centres unmarked) [Example 327, N-[[6-(5-cyclopropylisoxazole-3-carbonyl)-6-azaspiro[2.5]octan-2-yl]methyl]furo[2,3-c]pyridine-2-carboxamide] |
| 32.3 | N#Cc1cccc(CC(=O)N2CCC3(CC2)CC3CNC(=O)N2Cc3ccncc3C2)c1 (centres unmarked) [Example 178, N-[[6-(2-(3-cyanophenyl)acetyl]-6-azaspiro[2.5]octan-2-yl]methyl]-1,3-dihydropyrrolo(3,4-c]pyridine-2-carboxamide] |
| 28.2 | O=C(Cc1cccc(C(F)(F)F)c1)N1CCC2(CC1)CC2CNC(=O)N1Cc2ccncc2C1 (centres unmarked) [Example 202, N-[[6-[2-[3-(trifluoromethyl]phenyl]acetyl]-6-azaspiro[2.5]octan-2-yl]methyl]-1,3-dihydropyrrolo[3,4-c]pyridine-2-carboxamide] |
